Data from US20080114047A1 (priority 2003, published 2008).
“And” between values parts separate entries of the source, which are not always exact repeats. Equal values may be shown once. Read-outs that look alike come from different tables or passages of the source.

Columns and labels:
Plasmodium falciparum = assay: Anti-protozoan data: P. falcip. IC50; format: cell-based; details: read-out: P. falcip. IC50
[1] = system: Trypanosoma brucei rhodesiense; assay: Anti-protozoan data: T.b.r. IC50; format: cell-based; details: read-out: T.b.r. IC50
[2] = system: L. donovani axenic amastigotes; assay: In vitro anti-leishmania activity (IC50 vs. L. donovani axenic amastigotes); format: cell-based; details: Leishmania donovani
Trypanosoma cruzi = assay: Anti-protozoan data: T. cruzi IC50; format: cell-based; details: read-out: T. cruzi IC50
Aspergillus fumigatus = assay: Anti-fungal data: Aspergillus fumigatus; format: cell-based
Candida albicans = assay: Anti-fungal data: Candida albicans; format: cell-based
[3] = system: Mycobacterium tuberculosis; assay: Compounds tested against Mycobacterium tuberculosis (MIC90); format: cell-based; details: Table VII(b), read-out: M. tb MIC90
[4] = Tables VI(a), VI(c), read-out: Leishmania donovani IC50
[5] = axenic amastigotes, Tables I-V, read-out: IC50 vs. L. donovani

Structure (SMILES) | IC50 (Plasmodium falciparum; Tables VI(a), VI(c)) | IC50 ([1]; Tables VI(a), VI(c)) | melting point | IC50 (in vitro) | IC50 [2, 4] | IC50 (Trypanosoma cruzi; Tables VI(a), VI(c)) | MIC80 (Aspergillus fumigatus; strain DUMC 168.95) | MIC (Aspergillus fumigatus; strain DUMC 168.95, read-out: Aspergillus. Fumigatus (DUMC 168.95) MIC100) | MFC (Candida albicans; strain A39) | MIC80 (Candida albicans; strain A39) | MIC (Candida albicans; strain A39, read-out: Candida albicans (A39) MIC100) | IC50 [2, 5] | IC50 (Plasmodium falciparum) | IC50 [1] | MIC90 [3] | IC50 ([2]; read-out: L. Donovani IC50) | IC50 (Trypanosoma cruzi)
Cl.Cl.c1cc(OCCCCCOc2ccc(C3=NCCN3)cc2)cc(-c2cc3cc(C4=NCCN4)ccc3o2)c1 [Compound 40, 2-(2-(3-(5-(4-(4,5-Dihydro-1H-imidazol-2-yl)phenoxy)pentyloxy)phenyl)benzofuran-5-yl)-4,5-dihydro-1H-imidazole dihydrochloride] | 0.099 µM | 0.597 µM | 180 to 182 °C | 2.62 µM | 16.6 ± 6.2 µM | 7.88 µM | – | – | – | – | – | – | – | – | – | – | –
Cl.Cl.c1cc(C2=NCCN2)ccc1OCCCOc1ccc(-c2cc3cc(C4=NCCN4)ccc3o2)cc1 [Compound 46, 2-(2-(4-(3-(4-(4,5-Dihydro-1H-imidazol-2-yl)phenoxy)propoxy)phenyl)benzofuran-5-yl)-4,5-dihydro-1H-imidazole dihydrochloride] | 0.0432 µM | 0.0606 µM | 262 to 263 °C | 10.3 µM | – | 7.6 µM | 10 µg/mL | > 100 µg/mL | 10 µg/mL | 10 µg/mL | 10 µg/mL | – | – | – | – | – | –
CC(C)NC(=N)c1ccc(OCCCOc2cccc(-c3cc4ccc(C(=N)NC(C)C)cc4o3)c2)cc1.Cl.Cl [Compound 57, 2-(3-(3-(4-(N-Isopropylcarbamimidoyl)phenoxy)propoxy)phenyl)-N-isopropylbenzofuran-6-carboxamidine dihydrochloride] | 0.202 µM | 0.483 µM | 213 to 217 °C | 82.3 µM | 10.6 ± 6.42 µM | 69.8 µM | – | – | – | – | – | 10.6 ± 6.42 µM | – | – | – | – | –
Cl.Cl.c1cc(OCCCOc2ccc(C3=NCCN3)cc2)cc(-c2cc3ccc(C4=NCCN4)cc3o2)c1 [Compound 58, 2-(2-(3-(3-(4-(4,5-Dihydro-1H-imidazol-2-yl)phenoxy)propoxy)phenyl)benzofuran-6-yl)-4,5-dihydro-1H-imidazole dihydrochloride] | 0.0952 µM | 1.08 µM | 208 to 211 °C | 10.1 µM | 4.73 ± 1.71 µM | 7.32 µM | – | – | – | – | – | 4.73 ± 1.71 µM | – | – | – | – | –
Cl.Cl.c1cc(OCCCCOc2ccc(C3=NCCN3)cc2)cc(-c2cc3ccc(C4=NCCN4)cc3o2)c1 [Compound 61, 2-(2-(3-(4-(4-(4,5-Dihydro-1H-imidazol-2-yl)phenoxy)butoxy)phenyl)benzofuran-6-yl)-4,5-dihydro-1H-imidazole dihydrochloride] | 0.0976 µM | 2.86 µM | 198 to 200 °C | 5.84 µM | 7.38 ± 2.55 µM | 8.92 µM | – | – | – | – | – | 7.38 ± 2.55 µM | – | – | – | – | –
CC(C)NC(=N)c1ccc(OCCCCCOc2cccc(-c3cc4ccc(C(=N)NC(C)C)cc4o3)c2)cc1.Cl.Cl [Compound 63, 2-(3-(5-(4-(N-Isopropylcarbamimidoyl)phenoxy)pentyloxy)phenyl)-N-isopropylbenzofuran-6-carboxamidine dihydrochloride] | 0.294 µM | 0.911 µM | 253 to 255 °C | 20.1 µM | 8.92 ± 0.71 µM | 29.7 µM | – | – | – | – | – | 8.92 ± 0.71 µM | – | – | – | – | –
Cl.Cl.c1cc(OCCCCCOc2ccc(C3=NCCN3)cc2)cc(-c2cc3ccc(C4=NCCN4)cc3o2)c1 [Compound 64, 2-(2-(3-(5-(4-(4,5-Dihydro-1H-imidazol-2-yl)phenoxy)pentyloxy)phenyl)benzofuran-6-yl) -4,5-dihydro-1H-imidazole dihydrochloride] | 0.0469 µM | 0.442 µM | 188 to 190 °C | 3.7 µM | 16.5 ± 3.45 µM | 3.62 µM | – | – | – | – | – | 16.5 ± 3.45 µM | – | – | – | – | –
CC(C)NC(=N)c1ccc(OCCCCOc2ccc(-c3cc4ccc(C(=N)NC(C)C)cc4o3)cc2)cc1.Cl.Cl [Compound 72, 2-(4-(4-(4-(N-Isopropylcarbamimidoyl)phenoxy)butoxy)phenyl)-N-isopropylbenzofuran-6-carboxamidine dihydrochloride] | 0.139 µM | 1.75 µM | 280 to 283 °C | 15.9 µM | 4.52 ± 1.81 µM | 12.5 µM | – | – | – | – | – | 4.52 ± 1.81 µM | – | – | – | – | –
Cl.Cl.c1cc(C2=NCCN2)ccc1OCCCCOc1ccc(-c2cc3ccc(C4=NCCN4)cc3o2)cc1 [Compound 73, 2-(2-(4-(4-(4-(4,5-Dihydro-1H-imidazol-2-yl)phenoxy)butoxy)phenyl)benzofuran-6-yl)-4,5-dihydro-1H-imidazole dihydrochloride] | 0.0461 µM | 0.942 µM | 306 to 307 °C | 16.9 µM | 13.2 ± 0.86 µM | 9.82 µM | – | – | – | – | – | 13.2 ± 0.86 µM | – | – | – | – | –
Cl.Cl.c1cc(C2=NCCN2)ccc1OCCCCCOc1ccc(-c2cc3ccc(C4=NCCN4)cc3o2)cc1 [Compound 76, 2-(2-(4-(5-(4-(4,5-Dihydro-1H-imidazol-2-yl)phenoxy)pentyloxy)phenyl)benzofuran-6-yl)-4,5-dihydro-1H-imidazole dihydrochloride] | 0.028 µM | 0.262 µM | 212 to 215 °C | 3.2 µM | 10.4 ± 0.78 µM | 2.12 µM | – | – | – | – | – | 10.4 ± 0.78 µM | – | – | – | – | –
N=C(N)c1cccc(-c2cc3cc(C(=N)N)ccc3o2)c1 [Compound 166, 2-(3-carbamimidoylphenyl)benzofuran-5-carboxamidine] | – | – | – | 21.2 µM | – | – | – | – | – | – | – | 5.82 ± 0.06 µM | 0.0191 µM | 0.0241 µM | 11.9 µg/mL and 31.6 µM | 5.82 ± 0.06 µM | 23.4 µM
CC(C)NC(=N)c1cccc(-c2cc3cc(C(=N)NC(C)C)ccc3o2)c1 [Compound 167, 2-(3-(N-isopropylcarbamimidoyl)phenyl)-N-isopropylbenzofuran-5-carboxamidine] | – | – | – | > 199 µM | – | – | – | – | – | – | – | 13.4 ± 0.64 µM | 0.331 µM | 0.473 µM | > 57.8 µg/mL and > 128 µM | 13.4 ± 0.64 µM | > 199 µM
CONC(=N)c1ccc2cc(CCCCCc3cc4ccc(C(=N)NOC)cc4o3)oc2c1 [Compound 187, 2-(5-(6-(N-Methoxycarbamimidoyl)benzofuran-2-yl)pentyl)-N-methoxybenzofuran-6-carboxamidine] | 9.76 µM | 13.8 µM | – | 34.6 µM | > 50 µM | 38.4 µM | – | – | – | – | – | – | – | – | – | – | –
CONC(=N)c1ccc2oc(CCCc3cc4cc(C(=N)NOC)ccc4o3)cc2c1 [Compound 188, 2-(3-(5-(N-Methoxycarbamimidoyl)benzofuran-2-yl)propyl)-N-methoxybenzofuran-5-carboxamidine] | > 1.7 µM | 8.37 µM | – | > 157 µM | > 100 µM | > 157 µM | – | – | – | – | – | – | – | – | – | – | –
CONC(=N)c1ccc2oc(CCCCc3cc4cc(C(=N)NOC)ccc4o3)cc2c1 [Compound 189, 2-(4-(5-(N-Methoxycarbamimidoyl)benzofuran-2-yl)butyl)-N-methoxybenzofuran-5-carboxamidine] | ~2 µM | 6.87 µM | – | 74.3 µM | > 100 µM | 61.9 µM | – | – | – | – | – | – | – | – | – | – | –
N=C(NO)c1ccc2oc(CCCCCc3cc4cc(C(=N)NO)ccc4o3)cc2c1 [Compound 192, 2-(5-(5-(N-Hydroxycarbamimidoyl)benzofuran-2-yl)pentyl)-N-hydroxybenzofuran-5-carboxamidine] | > 1.9 µM | 5 µM | – | 27 µM | 14.3 ± 6.49 µM | 11.9 µM | – | – | – | – | – | – | – | – | – | – | –
